These results are taken from patent US20230285450A1 (priority 2020, published 2023).

One data set has as its system S. aureus. The data set can be described thus: Sterilization test of nitrogen oxide solutions without plasma. It is filed as cell-based. Particulars: ionized nitrogen oxide solutions without plasma. The method, then:
(§1) In order to confirm a sterilization effect of nitrogen oxides without plasma, ionized NO, NO2 and NO3 solutions were prepared and then sterilization experiments of S. typhimurium, S. aureus and E. coli were tested.

In a further data set the test system is E. coli. The description is as above. The format is cell-based. Particulars: ionized nitrogen oxide solutions without plasma. How it is done:
as §1

In the next data set the test system is S. typhimurium. The data set is described as above. It is filed as cell-based. As to conditions: ionized nitrogen oxide solutions without plasma. How it is done: as §1
Data set [1] deals with SKINETHIC™ human skin model. The data set can be described thus: Skin irritation test. It is filed as cell-based. Particulars: relative to negative control group (PBS). The method, then: In the skin irritation test, the absorbance was measured for a […]™ human skin model, and a cell viability value (%) was calculated using [Equation 4] to [Equation 6].
Cell viability (%) of negative control group=[absorbance of negative control group/absorbance of negative control group]×100 [Equation 4]
Cell viability (%) of positive control group=[absorbance of positive control group/absorbance of negative control group]×100 [Equation 5]

Another data set concerns cells. The data set can be described thus: Annexin V/PI toxicity evaluation. The format is cell-based. As to conditions: spots in upper right end indicate dead cells.
The test system of data set [2] is bovine cornea (eye mucosa irritation). From the text: The BCOP assay is a test to evaluate an irritation index for the eye mucosa using opacity and permeability. […] An in vitro irritancy score (IVIS) may be calculated by measuring the opacity and permeability, and the IVIS value may be calculated by [Equation 3].
IVIS=Mean opacity unit[…] [Equation 3]

Structures can show the parent of a compound that is named as a salt.

In the case of `O=[N+]([O-])O` [NO3], the sterilization effect entry in the data set on S. aureus, in the data set with E. coli and in the data set with S. typhimurium was “no sterilization effect was observed” each time.

Consider `CCCCCCCCCCCCOS(=O)(=O)[O-].[Na+]` [sodium dodecyl sulfate], for which the cell viability entry in data set [1] is “about 1.1%”.

In the case of `O=NO` [NO2], the sterilization effect entry with S. aureus, with E. coli and in the data set with S. typhimurium was “no sterilization effect was observed” in each case.

Take `OO` [H2O2, hydrogen peroxide]: the “Annexin V/PI toxicity” value in the data set with cells is “many spots were present in the upper right end”.

Take `CN(C)CCCN1c2ccccc2Sc2ccc(Cl)cc21` [chlorpromazine hydrochloride]: the phototoxicity conclusion entry with BALB/3T3 clone A31 cells is “phototoxicity was shown”. In the data set with BALB/3T3 clone A31 cells (mouse), the “mean photo effect (MPE)” value was 0.418 and the “photo irritation factor (PIF)” value is 18.882.

For `CCO` [ethyl alcohol], in data set [2], the “corneal opacity (appearance)” value is recorded as “completely opaque”. In data set [2] (bovine), the “IVIS (in vitro irritancy score)” value amounted to 39.4 ± 3.6, the Opacity unit was 19.9 ± 0.6 and the “Transmittance (Absorbance (OD490))” value was determined as 1.300 ± 0.203.
